Values of other authors as cited in US20240358668A1, “METHODS AND CO[…] AM[…] CARD[…] USING (R)-2-AMINO-3-PH[…]” (AXSOME THERAPEUTICS, INC., priority 2021, published 2024).

Settings: prescribing information; or potentially higher; cited from earlier work

SMILES: COC(=O)[C@H](c1ccccc1)[C@H]1CCCCN1 [Focalin, dexmethylphenidate]
- increase in blood pressure: 2-4 mm Hg
